Source: PubChem BioAssay AID624367 (Broad Institute, 2012)
Activity calls are given as the source filed them. How the calls were made is not given here.

Assay: viability loss in LCL cells – cell-based, plate reader, dry powder, set 2, cytotoxicity control, dose response (AID 624367)
Conditions: Lymphoblastoid cell line (LCL) cytotoxicity, plate reader

Row | SMILES | activity change, negative = cytotoxicity (at 35 µM (top of the series)) | activity change, negative = cytotoxicity (at 30 µM (top of the series))
1 | C[C@H]1CN([C@@H](C)CO)C(=O)c2c(c3ccccc3n2C)-c2ccccc2CO[C@@H]1CN(C)C(=O)Nc1ccc(F)cc1 | 1.36% (inactive) | –
2 | C[C@@H](NC(=O)C[C@@H]1C=C[C@@H](NC(=O)Cc2ccccn2)[C@@H](CO)O1)c1ccccc1 | -0.658% (inactive) | –
3 | C[C@H](NC(=O)C[C@H]1C=C[C@@H](NC(=O)Cc2ccccn2)[C@H](CO)O1)c1ccccc1 | 9.63% (inactive) | –
4 | C[C@H]1CN([C@@H](C)CO)C(=O)c2c(c3ccccc3n2C)-c2ccccc2CO[C@H]1CN(C)C(=O)Nc1ccc(F)cc1 | 0.119% (inactive) | –
5 | C[C@H](NC(=O)C[C@@H]1C=C[C@H](NC(=O)Cc2ccccn2)[C@H](CO)O1)c1ccccc1 | – | 6.34% (inactive)
6 | CC(C)(C)[S@@](=O)N1Cc2cc(C(=O)NCc3ccccc3F)nc(-c3cccc(-c4cccnc4)c3)c2[C@H]1CCO | -3.02% (inactive) | –
7 | COc1ccc(CNC(=O)c2cc3c(c(-c4cccc(-c5ccc(C#N)cc5)c4)n2)[C@@H](CCO)N([S@](=O)C(C)(C)C)C3)cc1 | -0.743% (inactive) | –
8 | COC(=O)C[C@H]1C[C@H]2c3cc(NC(=O)CN(C)C)ccc3O[C@H]2[C@H](CO)O1 | 3.27% (inactive) | –
9 | O=C(C[C@@H]1CC[C@H]2[C@@H](COC[C@H](O)CN2Cc2ccc(Oc3ccccc3)cc2)O1)N1CCc2ccccc2C1 | -13.4% (inactive) | –
10 | COc1ccc(NC(=O)N(C)C[C@@H]2Oc3cc(C#CCC(C)C)ccc3S(=O)(=O)N([C@@H](C)CO)C[C@@H]2C)cc1 | -0.055% (inactive) | –
11 | Cc1noc(C)c1S(=O)(=O)Nc1ccc2c(c1)C(=O)N([C@H](C)CO)C[C@H](C)[C@@H](CN(C)Cc1ccc(C(F)(F)F)cc1)OCCCC[C@H](C)O2 | -4.42% (inactive) | –
12 | C[C@@H](NC(=O)C[C@@H]1C=C[C@H](NC(=O)Cc2ccccn2)[C@H](CO)O1)c1ccccc1 | 6.45% (inactive) | –
13 | C[C@@H](NC(=O)C[C@H]1C=C[C@@H](NC(=O)Cc2ccccn2)[C@@H](CO)O1)c1ccccc1 | -7.23% (inactive) | –
14 | CO[C@H](CN(C)S(=O)(=O)c1cccc(Cl)c1)[C@@H](C)CN([C@H](C)CO)S(=O)(=O)c1ccc(Cl)cc1 | -9.42% (inactive) | –
15 | C[C@@H](NC(=O)C[C@H]1C=C[C@@H](NC(=O)Cc2ccccn2)[C@H](CO)O1)c1ccccc1 | -1.43% (inactive) | –
16 | C/C=C/c1cccc(-c2nc(C(=O)Nc3nccs3)cc3c2[C@@H](CCO)N(C(=O)NC(C)C)C3)c1 | 3.79% (inactive) | –
17 | CN1C(=O)c2cc(NC(=O)c3ccc(C(F)(F)F)cc3)ccc2OC[C@@H]2O[C@H](CC(=O)NC3Cc4ccccc4C3)CC[C@H]21 | -1.04% (inactive) | –
18 | COc1cccc(S(=O)(=O)N(C)C[C@H]2Oc3cc(C4=CCCCC4)ccc3S(=O)(=O)N([C@@H](C)CO)C[C@@H]2C)c1 | 4.96% (inactive) | –
19 | O=C(Cc1ccccn1)NCC[C@@H]1CC[C@H](NC(=O)Nc2ccc(Cl)cc2)[C@@H](CO)O1 | 6.35% (inactive) | –
20 | C[C@@H]1CN([C@@H](C)CO)C(=O)Cc2cc(NC(=O)Cc3ccccc3)ccc2O[C@@H]1CN(C)Cc1ccc(C(F)(F)F)cc1 | -0.78% (inactive) | –
21 | C[C@@H]1CN([C@H](C)CO)C(=O)c2c(c3ccccc3n2C)-c2ccccc2CO[C@@H]1CN(C)C(=O)Nc1ccc(F)cc1 | -1.38% (inactive) | –
22 | CC(C)(C)[S@@](=O)N1Cc2cc(C(=O)NCc3ccccc3F)nc(-c3cccc(-c4ccncc4)c3)c2[C@H]1CCO | 0.812% (inactive) | –
23 | N#C[C@H]1N[C@H](CO)[C@H]1c1ccc(C#Cc2ccccc2F)cc1 | -8.35% (inactive) | –
24 | Cc1noc(C)c1S(=O)(=O)Nc1ccc2c(c1)C(=O)N([C@@H](C)CO)C[C@@H](C)[C@H](CN(C)Cc1ccc(C(F)(F)F)cc1)OCCCC[C@H](C)O2 | – | -0.638% (inactive)
25 | Cc1cc(C(=O)Nc2ccc3c(c2)C(=O)N(C)[C@@H]2CC[C@H](CC(=O)NCc4ccc(-c5ccccc5)cc4)O[C@H]2CO3)no1 | – | -7.18% (inactive)
26 | CCCNC(=O)c1cc2c(c(-c3cccc(-c4cccc(F)c4)c3)n1)[C@H](CCO)N([S@@](=O)C(C)(C)C)C2 | -1.43% (inactive) | –
27 | C[C@H](NC(=O)C[C@H]1C=C[C@H](NC(=O)Cc2ccccn2)[C@@H](CO)O1)c1ccccc1 | 0.993% (inactive) | –
28 | C[C@@H](NC(=O)C[C@@H]1C=C[C@H](NC(=O)Cc2ccccn2)[C@@H](CO)O1)c1ccccc1 | -4.44% (inactive) | –
29 | Cc1noc(C)c1S(=O)(=O)Nc1ccc2c(c1)C(=O)N([C@@H](C)CO)C[C@H](C)[C@@H](CN(C)Cc1ccc(C(F)(F)F)cc1)OCCCC[C@H](C)O2 | -1.76% (inactive) | –
